Read-outs that look alike come from different tables or passages of the source.
Assays:
A549 [1] = conditions: A549, MTT assay, 96 h; cited from earlier work
SW480 [2] = conditions: SW480, MTT assay, 96 h; cited from earlier work
CH1/PA‐1 [3] = conditions: CH1/PA‐1, MTT assay, 96 h; cited from earlier work
[4] = system: human cancer cell lines CH1/PA‐1, SW480, A549; design: method as in PMID 26365319; conditions: cited from earlier work
[5] = UV/Vis stability in aqueous solution; assay type: physicochemical; conditions: in PBS, rank among osmium complexes
Experimental: In order to investigate complex stabilities, UV/Vis spectrophotometry was conducted for all complexes. […] This process is fastest for complex 4 b* followed by complexes 4 a* and finally 4 c* in PBS. Decomposition of the osmium compounds was slightly slower in pure water (Figure 5).
UV/Vis spectra were recorded using a Hewlett Packard 8452A diode‐array spectrophotometer between 200–800 nm. The path length (l) was either 1 or 2 cm. UV/Vis spectra were recorded to confirm complex stability in aqueous systems and over a pH range 5.8–7.9.

A549 [6] = test: MTT cytotoxicity assay, monolayer culture; assay type: cell-based, human; conditions: exposure time 96 h, means ± SDs
CH1/PA‐1 [7] = test: MTT cytotoxicity assay, monolayer culture; assay type: cell-based, human; conditions: CH1/PA‐1, MTT assay, exposure time 96 h, means ± SDs
SW480 [8] = test: MTT cytotoxicity assay, monolayer culture; assay type: cell-based, human
[9] = pH 5.8
Experimental: In order to investigate a possible pH influence on complex stability and to gather further insights into the instability of the osmium complexes, UHPLC kinetic measurements were carried out at pH values of 5.8, 6.2, 6.7, 7.2 and 7.9 in phosphate buffered solution via UHPLC. […] Due to pump pressure fluctuations the retention times tended to shift ±0.18 min.
Stock solutions containing the desired complex in DMSO (5 mM) were diluted with phosphate buffer to a final concentration of 50 μM compound in 1 % DMSO/20 mM buffer and directly analyzed via gradient UHPLC runs over 24 h. Phosphate buffers at pH 5.8, 6.2, 6.7, 7.2 and 7.9 were employed to ensure a constant pH value. The instrument was set to 0.6 mL min^−1 flow rate, 37 °C sampler temperature, 25 °C column compartment, 225 nm detection wavelength, 95 % MeOH in MiliQ water +0.1 % formic acid over 7.0 min.

[10] = 1H NMR kinetics in D2O/1 % [D6]DMSO, repeated 1:1 dilution
Experimental: In order to elucidate the fate of complex 4 c* and a possible concentration effect on its stability, additional NMR and MS experiments were carried out. […] Consequently, the sample was diluted 1:1 (3 mg mL^−1) and kinetics were measured over 24 h a second time. This step was repeated six times in total (after 24, 48, 72, 96, 168, and 192 h; resulting in a final concentration of 176 μM). […] It was impossible to measure 2D NMR sets throughout the experiment, due to the low sample concentration.

[11] = system: human cancer cell lines CH1/PA‐1, SW480, A549; conditions: for IC50 values, in words: tested cancer cell lines
Experimental: Cytotoxicity of the compounds in monolayer cultures was determined by the colorimetric MTT assay (MTT=3‐(4,5‐dimethyl‐2‐thiazolyl)‐2,5‐diphenyl‐2H‐tetrazolium bromide). 1×10^3 CH1/PA‐1, 2×10^3 SW480 and 3×10^3 A549 cells were seeded in 100 μL supplemented MEM per well into 96‐well flat‐bottom microculture plates. […] After 96 h, the drug‐containing medium was replaced with 100 μL of RPMI 1640/MTT mixture [6 parts of RPMI 1640 medium (supplemented with 10 % heat‐inactivated fetal bovine serum and 4 mM L‐glutamine), 1 part of MTT solution in phosphate‐buffered saline (5 mg mL^−1)]. After incubation for 4 h, the mixture was replaced with 150 μL DMSO per well to dissolve the formazan product formed by viable cells. Optical densities at 550 nm (and at a reference wavelength of 690 nm) were measured with a microplate reader (ELx808, Bio‐Tek).

[12] = pH 7.2
Experimental: Stock solutions containing the desired complex in DMSO (5 mM) were diluted with phosphate buffer (pH 7.2) to a final concentration of […] compound in 1 % DMSO/20 mM buffer and directly analyzed by four different isocratic UHPLC runs (Δ=5 %). The lipophilicity parameters logkw and lipophilicity indices φ0 were calculated according to literature.7, 37

CH1/PA‐1 [13] = test: Cell cycle distribution, flow cytometry with propidium iodide; assay type: cell-based, human; conditions: for Cell cycle distribution G1, % / Cell cycle distribution G2/M, % / Cell cycle distribution S, %: 24 h, mean ± SD; for Relative change in cell cycle distribution G1, % / Relative change in cell cycle distribution G2/M, % / Relative change in cell cycle distribution S, %: difference to untreated control
Summary of the method: (§1)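 CH1/PA-1 and SW480 cells were allowed to attach for 24 h, then exposed continuously to compounds for 24 h at 37 °C. Nuclei were stained overnight at 4 °C with propidium iodide (50 μg mL^−1) in Triton/citrate buffer. 5×10^3 cells were analysed by flow cytometry, with G1/S/G2/M fractions fitted by the Watson Pragmatic model.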

SW480 [14] = test: as above; assay type: cell-based, human; conditions: for Cell cycle distribution G1, % / Cell cycle distribution G2/M, % / Cell cycle distribution S, %: 24 h, mean ± SD; for Relative change in cell cycle distribution G1, % / Relative change in cell cycle distribution G2/M, % / Relative change in cell cycle distribution S, %: difference to untreated control
Summary of the method: as §1

A549 [15] = conditions: A549 multicellular spheroids, 96 h drug exposure
Experimental: (§2) A549, CH1/PA‐1 and SW480 cells were grown in MEM supplemented with 10 % fetal calf serum (FCS; from Biowest), 1 mM sodium pyruvate, 4 mM L‐glutamine and 1 % v/v nonessential amino acids (from 100×solution) and L‐glutamine. HCT‐116 cells were maintained in McCoy's 5a medium supplemented with 10 % FCS and L‐glutamine. Adherent monolayer cultures were grown in 75 cm^2 flasks. For spheroid culture, A549, CH1/PA‐1 and HCT‐116 cells were harvested from culture flasks by trypsinization, resuspended in their respective supplemented medium and seeded in ultra‐low attachment round‐bottom 96‐well plates (Corning Costar) at a density of 500 viable cells per well. Plates were incubated for 96 h to allow spheroid formation prior to use for the tests. All cultures were incubated in a humidified incubator at 37 °C with 5 % CO2.
(§3) Cytotoxicity in multicellular spheroids was determined by the fluorimetric resazurin assay. […] After incubation for 96 h, 20 μL of a 440 μM resazurin sodium salt solution in PBS were added to each well, and the plates were incubated for further 16 h. Fluorescence was measured with a Synergy HT reader (BioTek) with an excitation wavelength of 530 nm and emission wavelength of 590 nm. For both assays, at least three independent experiments (or two in case of poor activity) were performed, each with triplicates per concentration level, and the 50 % inhibitory concentrations (IC50) relative to untreated controls were interpolated from concentration‐effect curves.

CH1/PA‐1 [16] = conditions: CH1/PA‐1 multicellular spheroids, 96 h drug exposure
Experimental: as §2, §3

HCT‐116 = HCT‐116 multicellular spheroids, 96 h drug exposure
Experimental: as §2, §3

[17] = system: autochthonous colon cancer; design: method as in earlier work; conditions: rat model, well tolerable dose, cited from earlier work
[18] = SW480, MTT assay, exposure time 96 h, means ± SDs

Compound: [Cl][Ru-]([Cl])([Cl])[Cl].[Na+].c1ccc2[nH]ncc2c1.c1ccc2[nH]ncc2c1 [BOLD‐100]
- IC50 (A549 [1]): 156 ± 11 µM
- IC50 (SW480 [2]): 62 ± 9 µM
- IC50 (CH1/PA‐1 [3]): 50 ± 6 µM

Compound: N.N.[Cl][Pt][Cl] [Cisplatin]
- activity in CH1/PA‐1 cells relative to SW480 cells [4]: up to 22 times
- IC50 (A549 [1]): 1.3 ± 0.4 µM
- IC50 (SW480 [2]): 3.5 ± 0.3 µM
- IC50 (CH1/PA‐1 [3]): 0.16 ± 0.03 µM

Compound: Cc1c([O-])c(=S)ccn1-c1ccccc1.Cc1ccc(C(C)C)cc1.[Cl-].[Os+2] [Compound 4 b, Chlorido[2‐methyl‐3‐(oxo‐κO)‐1‐phenylpyridine‐4(1H)‐thionato‐κS](η^6‐p‐cymene)osmium(II)]
- decomposition speed by UV/Vis [5]: fastest
- IC50 (A549 [6]): 2200 ± 1100 nM
- IC50 (CH1/PA‐1 [7]): 1130 ± 30 nM
- IC50 (SW480 [8]; [18]): 5.8 ± 0.3 µM

Compound: Cc1c([O-])c(=S)ccn1Cc1ccccc1.Cc1ccc(C(C)C)cc1.[Cl-].[Os+2] [Compound 4 c, Chlorido[1‐benzyl‐2‐methyl‐3‐(oxo‐κO)‐pyridine‐4(1H)‐thionato‐κS](η^6‐p‐cymene)osmium(II)]
- stability by UHPLC [9]: stable over 24 h
- dilution at which formation of a second species became apparent [10]: 375 µg/mL
- IC50 (A549 [6]): 2200 ± 1200 nM
- IC50 (CH1/PA‐1 [7]): 1300 ± 200 nM
- IC50 (SW480 [8]; [18]): 5.6 ± 0.7 µM
- IC50 values, in words [11]: low micromolar range

Compound: CC1=C2[O][Ir+]([Cl])[S]=C2C=CN1Cc1ccccc1.Cc1c(C)c(C)[c-](C)c1C [Compound 6 c, Chlorido[1‐benzyl‐2‐methyl‐3‐oxo‐κO‐pyridine‐4(1H)‐thionato‐κS](η^5‐1,2,3,4,5‐pentamethylcyclopentadienyl)iridium(III)]
- φ0 (chromatographic lipophilicity index) [12]: 6.22
- Cell cycle distribution G1, % (CH1/PA‐1 [13]; CH1/PA-1, 0.75 µM): 30 ± 4%
- Cell cycle distribution G2/M, % (CH1/PA‐1 [13]; CH1/PA-1, 0.75 µM): 32 ± 4%
- Cell cycle distribution S, % (CH1/PA‐1 [13]; CH1/PA-1, 0.75 µM): 38 ± 3%
- Relative change in cell cycle distribution G1, % (CH1/PA‐1 [13]; CH1/PA-1, 0.75 µM): -10%
- Relative change in cell cycle distribution G2/M, % (CH1/PA‐1 [13]; CH1/PA-1, 0.75 µM): 8%
- Relative change in cell cycle distribution S, % (CH1/PA‐1 [13]; CH1/PA-1, 0.75 µM): 2%
- Cell cycle distribution G1, % (CH1/PA‐1 [13]; CH1/PA-1, 1.25 µM): 30 ± 8%
- Cell cycle distribution G2/M, % (CH1/PA‐1 [13]; CH1/PA-1, 1.25 µM): 33 ± 4%
- Cell cycle distribution S, % (CH1/PA‐1 [13]; CH1/PA-1, 1.25 µM): 37 ± 6%
- Relative change in cell cycle distribution G1, % (CH1/PA‐1 [13]; CH1/PA-1, 1.25 µM): -10%
- Relative change in cell cycle distribution G2/M, % (CH1/PA‐1 [13]; CH1/PA-1, 1.25 µM): 9%
- Relative change in cell cycle distribution S, % (CH1/PA‐1 [13]; CH1/PA-1, 1.25 µM): 1%
- Cell cycle distribution G1, % (CH1/PA‐1 [13]; CH1/PA-1, 2.5 µM): 27 ± 4%
- Cell cycle distribution G2/M, % (CH1/PA‐1 [13]; CH1/PA-1, 2.5 µM): 34 ± 3%
- Cell cycle distribution S, % (CH1/PA‐1 [13]; CH1/PA-1, 2.5 µM): 39 ± 4%
- Relative change in cell cycle distribution G1, % (CH1/PA‐1 [13]; CH1/PA-1, 2.5 µM): -13%
- Relative change in cell cycle distribution G2/M, % (CH1/PA‐1 [13]; CH1/PA-1, 2.5 µM): 10%
- Relative change in cell cycle distribution S, % (CH1/PA‐1 [13]; CH1/PA-1, 2.5 µM): 3%
- decrease in G1 phase (CH1/PA‐1 [13]; CH1/PA‐1 cells, 2.5 μM): 13%
- Cell cycle distribution G1, % (SW480 [14]; SW480, 0.75 µM): 40 ± 5%
- Cell cycle distribution G2/M, % (SW480 [14]; SW480, 0.75 µM): 24 ± 5%
- Cell cycle distribution S, % (SW480 [14]; SW480, 0.75 µM): 36 ± 2%
- Relative change in cell cycle distribution G1, % (SW480 [14]; SW480, 0.75 µM): -8%
- Relative change in cell cycle distribution G2/M, % (SW480 [14]; SW480, 0.75 µM): 5%
- Relative change in cell cycle distribution S, % (SW480 [14]; SW480, 0.75 µM): 3%
- Cell cycle distribution G1, % (SW480 [14]; SW480, 1.25 µM): 39 ± 13%
- Cell cycle distribution G2/M, % (SW480 [14]; SW480, 1.25 µM): 22 ± 3%
- Cell cycle distribution S, % (SW480 [14]; SW480, 1.25 µM): 38 ± 8%
- Relative change in cell cycle distribution G1, % (SW480 [14]; SW480, 1.25 µM): -9%
- Relative change in cell cycle distribution G2/M, % (SW480 [14]; SW480, 1.25 µM): 3%
- Relative change in cell cycle distribution S, % (SW480 [14]; SW480, 1.25 µM): 5%
- Cell cycle distribution G1, % (SW480 [14]; SW480, 2.5 µM): 43 ± 2%
- Cell cycle distribution G2/M, % (SW480 [14]; SW480, 2.5 µM): 19 ± 3%
- Cell cycle distribution S, % (SW480 [14]; SW480, 2.5 µM): 38 ± 5%
- Relative change in cell cycle distribution G1, % (SW480 [14]; SW480, 2.5 µM): -5%
- Relative change in cell cycle distribution G2/M, % (SW480 [14]; SW480, 2.5 µM): 0%
- Relative change in cell cycle distribution S, % (SW480 [14]; SW480, 2.5 µM): 5%
- decrease in G1 phase (SW480 [14]; SW480 cells, at applicable concentrations): < 9%
- IC50 (A549 [6]): 1100 ± 200 nM
- IC50 (CH1/PA‐1 [7]): 570 ± 50 nM
- IC50 (SW480 [8]; [18]): 0.54 ± 0.07 µM
- IC50 (SW480 [8]; SW480, as listed in Table 3): 0.54 ± 0.07 µM
- cytotoxicity relative to 3 c and 4 c [11]: up to 20 times
- IC50 values, in words [11]: high nanomolar range
- cellular concentration relative to 3 c (SW480 cells): 11 times
- cellular concentration relative to 5 c (SW480 cells): 2 times
- Cellular accumulation (SW480 cells; ICP‐MS, 2 h exposure, 50 μM): 1680±333 fg/cell
- IC50 (A549 [15]): 136 ± 5 µM
- IC50 (CH1/PA‐1 [16]): 114 ± 3 µM
- IC50 (HCT‐116): 78 ± 2 µM

Compound: [Cl-].[Cl-].[Cl-].[Cl-].[Ru+3].c1ccc2[nH][nH+]cc2c1.c1ccc2[nH]ncc2c1.c1ccc2[nH]ncc2c1 [KP1019, indazolium trans‐[tetrachlorido‐bis(1H‐indazole)ruthenate(III)]]
- reduction of tumor volume ([17]; autochthonous colon cancer): up to 95%
- weight loss [17]: no more than 6%

From article PMC7217150, “Synthesis, Modification, and Biological Evaluation of a Library of Novel Water‐Soluble Thiopyridone‐Based Organometallic Complexes and Their Unexpected (Biological) Behavior” (Chemistry (Weinheim an Der Bergstrasse, Germany), 2020)
